Data on 24 molecules can be found in patent US9242984B2, “Pyrazolyl derivatives as Syk inhibitors” (Merck Sharp & Dohme Corp., priority 2012, dated 2016).

Read-outs that look alike come from different tables or passages of the source. Bounds are passed on as bounds.

The assay addresses T1, recombinant human Syk (GST-hSyk fusion protein) (Homo sapiens, UniProt P43405).
T1 construct: purchased Carna Biosciences 08-176
In words: Homogeneous Time-Resolved Fluorescence (HTRF) assay for the recombinant human Syk enzyme. It counts as biochemical. Conditions: 10-dose titration, 25 μM ATP. As for the experimental part:
Syk inhibition may be determined using the following assay protocol:
Homogeneous Time-Resolved Fluorescence (HTRF) Assay for the Recombinant Human Syk Enzyme:
A recombinant GST-hSyk fusion protein was used to measure potency of compounds to inhibit human Syk activity. The recombinant human GST-Syk (Carna Biosciences #08-176) (5 pM final concentration) was incubated with various concentrations of the inhibitor diluted in DMSO (0.1% final concentration) for 10 minutes at room temperature in 15 mM Tris-HCl (pH 7.5), 0.01% tween 20, 2 mM DTT in 384 well plate format. To initiate the reaction the biotinylated substrate peptide (250 nM final concentration) that contains the phosphorylation site for Syk was added with magnesium (5 mM final concentration) and ATP (25 μM final concentration). Final volume of the reaction was 10 μL. Phosphorylation of the peptide was allowed to proceed for 45 minutes at room temperature. To quench the reaction and detect the phosphorylated product, 2 nM of a Europium-anti-phosphotyrosine antibody (Perkin Elmer #AD0161) and 70 nM SA-APC (Perkin-Elmer #CR130-100) were added together in 15 mM Tris pH 7.5, 40 mM EDTA, 0.01% tween 20. Final volume of the quenching solution was 10 μL. The resulting HTRF signal was measured after 30 minutes on an EnVision (Perkin-Elmer) reader using a time-resolved fluorescence protocol. IC50 was determined following 10-dose titration (10 μM to 0.508 nM) and four parameter logistic curve fitting using the Merck Assay Data Analyzer. The rhSyk activity (IC50) is expressed as +++(100 nM or less), ++(between 100 and 1000 nM), +(between 1 and 10 μM).

Setting [1] is: IC50 class, read-out: rhSYK Activity.

In the case of `Cc1cc(Nc2nccc(C(F)(F)F)n2)cc(-c2cnn(CC(C)(O)C(N)=O)c2)c1` (single isomer, unassigned) [Example 8.3, 2-hydroxy-2-methyl-3-[4-(3-methyl-5-{[4-(trifluorometh-yl)pyrimidin-2-yl]amino}phenyl)-1H-pyrazol-1-yl]propanamide], the IC50 under setting [1] is at most 0.1 µM.

Take `Cc1cc(Nc2nccc(C(F)(F)F)n2)cc(-c2cnn(CC(C)(O)C(N)=O)c2)c1` (single isomer, unassigned) [Example 8.14, 2-hydroxy-2-methyl-3-[4-(3-methyl-5-{[4-(trifluorometh-yl)pyrimidin-2-yl]amino}phenyl)-1H-pyrazol-1-yl]propanamide]: under setting [1], the IC50 was at most 0.1 µM.

With `Cc1cc(Nc2nccc(C(F)(F)F)n2)cc(-c2cnn(CC(C)(O)C(N)=O)c2)c1` (single isomer, unassigned) [Example 8.15, 2-hydroxy-2-methyl-3-[4-(3-methyl-5-{[4-(trifluorometh-yl)pyrimidin-2-yl]amino}phenyl)-1H-pyrazol-1-yl]propanamide], under setting [1], the IC50 is at most 0.1 µM.

On to `Cc1cc(Nc2nccc(C(F)(F)F)n2)cc(-c2cnn(C3CCCC(O)C3O)c2)c1` (single isomer, unassigned) [Example 10.1, (R or S) 3-[4-(3-methyl-5-{[4-(trifluoromethyl)pyrimidin-2-yl]amino}phenyl)-1H-pyrazol-1-yl]cyclohexane-1,2-diol], for which the IC50 was 0.0074 µM (read-out: rhSYK IC50) and at most 0.1 µM under setting [1].

Take `Cc1cc(Nc2nccc(C(F)F)n2)cc(-c2cnn(C3CCCC(O)C3O)c2)c1` (single isomer, unassigned) [Example 10.4, 3-[4-(3-{[4-(difluoromethyl)pyrimidin-2-yl]amino}-5-methylphenyl)-1H-pyrazol-1-yl]cyclohexane-1,2-diol]: the IC50 (read-out: rhSYK IC50) came to 0.0037 µM and the IC50 under setting [1] was at most 0.1 µM.

`Cc1cc(Nc2nccc(C(F)F)n2)cc(-c2cnn(C3CCCC(O)C3O)c2)c1` (single isomer, unassigned) [Example 10.5, 3-[4-(3-{[4-(difluoromethyl)pyrimidin-2-yl]amino}-5-methylphenyl)-1H-pyrazol-1-yl]cyclohexane-1,2-diol]: the IC50 was 0.00524 µM (read-out: rhSYK IC50) and at most 0.1 µM under setting [1].

For the molecule `Cc1cc(Nc2nccc(C(F)F)n2)cc(-c2cnn(C3CCCC(O)C3O)c2)c1` (single isomer, unassigned) [Example 10.6, 3-[4-(3-{[4-(difluoromethyl)pyrimidin-2-yl]amino}-5-methylphenyl)-1H-pyrazol-1-yl]cyclohexane-1,2-diol], the IC50 is 0.0013 µM (read-out: rhSYK IC50) and at most 0.1 µM under setting [1].

For `Cc1cc(Nc2nccc(C(F)F)n2)cc(-c2cnn(C3CCCC(O)C3O)c2)c1` (single isomer, unassigned) [Example 10.7, 3-[4-(3-{[4-(difluoromethyl)pyrimidin-2-yl]amino}-5-methylphenyl)-1H-pyrazol-1-yl]cyclohexane-1,2-diol], the IC50 runs as follows: (read-out: rhSYK IC50) 0.0007 µM; under setting [1], at most 0.1 µM.

`Cc1cc(Nc2ncc(F)c(C(F)F)n2)cc(-c2cnn([C@@H]3CCC[C@@H](O)[C@H]3O)c2)c1` (single isomer, unassigned) [Example 10.11, 3-[4-(3-{[4-(difluoromethyl)-5-fluoro-pyrimidin-2-yl]amino}-5-methylphenyl)-1H-pyrazol-1-yl]cyclohexane-1,2-diol]: the IC50 by setting is: (read-out: rhSYK IC50) 0.0035 µM; under setting [1], at most 0.1 µM.

With `Cc1cc(Nc2nccc(C(F)(F)F)n2)cc(-n2cc(C(C)(O)c3ccc(C(=O)O)cc3)cn2)c1` (single isomer, unassigned) [Example 19.7, 4-{1-hydroxy-1-[1-(3-methyl-5-{[4-(trifluoromethyl)pyrimidin-2-yl]amino}phenyl)-1H-pyrazol-4-yl]ethyl}benzoic acid], under setting [1], the IC50 is at most 0.1 µM.

In the case of `Cc1cc(Nc2nccc(C(F)(F)F)n2)cc(-n2cc(C(C)(O)c3ccc(C(=O)O)cc3)cn2)c1` (single isomer, unassigned) [Example 19.8, 4-{1-hydroxy-1-[1-(3-methyl-5-{[4-(trifluoromethyl)pyrimidin-2-yl]amino}phenyl)-1H-pyrazol-4-yl]ethyl}benzoic acid], the IC50 under setting [1] is at most 0.1 µM.

In the case of `Cc1cc(Nc2cc(C(F)(F)F)ccn2)nc(-c2cnn(CC(C)(O)CC#N)c2)c1` (single isomer, unassigned) [Example 20.1, (R or S)-3-Hydroxy-3-methyl-4-(4-(4-methyl-6-((4-(trifluoromethyl)pyridin-2-yl)amino)pyridin-2-yl)-1H-pyrazol-1-yl)butanenitrile], the IC50 (read-out: rhSYK IC50) was 0.0017 µM and the IC50 under setting [1] was at most 0.1 µM.

On to `Cc1cc(Nc2nccc(C(F)(F)F)n2)cc(-c2cnn(CC(C)(O)CO)c2)c1` (single isomer, unassigned) [Example 21.1, 2-Methyl-3-(4-(3-methyl-5-((4-(trifluoromethyl)pyrimidin-2-yl)amino)phenyl)-1H-pyrazol-1-yl)propane-1,2-diol], for which the IC50 was 0.00366 µM (read-out: rhSYK IC50) and at most 0.1 µM under setting [1].

Take `Cc1cc(Nc2nccc(C(F)(F)F)n2)cc(-c2cnn(CC(C)(O)CO)c2)c1` (single isomer, unassigned) [Example 21.2, 2-Methyl-3-(4-(3-methyl-5-((4-(trifluoromethyl)pyrimidin-2-yl)amino)phenyl)-1H-pyrazol-1-yl)propane-1,2-diol]: the IC50 under setting [1] is at most 0.1 µM.

With `Cc1cc(Nc2nccc(C(F)(F)F)n2)cc(-c2cnn([C@@H](C)[C@@](C)(O)CO)c2)c1` (single isomer, unassigned) [Example 21.8, 2-methyl-3-[4-(3-methyl-5-{[4-(trifluoromethyl)pyrimidin-2-yl]amino}phenyl)-1H-pyrazol-1-yl]butane-1,2-diol], the IC50 under setting [1] was at most 0.1 µM.

In the case of `Cc1cc(Nc2nccc(C(F)(F)F)n2)cc(-c2cnn(C(C)C(C)(O)CO)c2)c1` (single isomer, unassigned) [Example 21.9, 2-methyl-3-[4-(3-methyl-5-{[4-(trifluoromethyl)pyrimidin-2-yl]amino}phenyl)-1H-pyrazol-1-yl]butane-1,2-diol], the IC50 under setting [1] was at most 0.1 µM.

In the case of `Cc1cc(Nc2nccc(C(F)(F)F)n2)cc(-c2cnn([C@@H](C)[C@](C)(O)CO)c2)c1` (single isomer, unassigned) [Example 21.10, 2-methyl-3-[4-(3-methyl-5-{[4-(trifluoromethyl)pyrimidin-2-yl]amino}phenyl)-1H-pyrazol-1-yl]butane-1,2-diol], the IC50 under setting [1] was at most 0.1 µM.

Take `Cc1cc(Nc2nccc(C(F)(F)F)n2)cc(-c2cnn(C(C)C(C)(O)CO)c2)c1` (single isomer, unassigned) [Example 21.11, 2-methyl-3-[4-(3-methyl-5-{[4-(trifluoromethyl)pyrimidin-2-yl]amino}phenyl)-1H-pyrazol-1-yl]butane-1,2-diol]: the IC50 under setting [1] was at most 0.1 µM.

With `Cc1cc(Nc2nccc(C(F)F)n2)cc(-c2cnn(C(C)C(C)(O)CO)c2)c1` (single isomer, unassigned) [Example 22.1, 3-(4-(3-((4-(Difluoromethyl)pyrimidin-2-yl)amino)-5-methylphenyl)-1H-pyrazol-1-yl)-2-methylbutane-1,2-diol], the IC50 is 0.0013 µM (read-out: rhSYK IC50) and at most 0.1 µM under setting [1].

Regarding `Cc1cc(Nc2nccc(C(F)F)n2)cc(-c2cnn(C(C)C(C)(O)CO)c2)c1` (single isomer, unassigned) [Example 22.2, 3-(4-(3-((4-(Difluoromethyl)pyrimidin-2-yl)amino)-5-methylphenyl)-1H-pyrazol-1-yl)-2-methylbutane-1,2-diol], the IC50 under setting [1] is at most 0.1 µM.

Turning to `Cc1cc(Nc2nccc(C(F)(F)F)n2)cc(-c2cnn(C[C@@H]3OC(=O)N[C@H]3C)c2)c1` (single isomer, unassigned) [Example 23.1], the IC50 runs as follows: (read-out: rhSYK IC50) 0.0012 µM; under setting [1], at most 0.1 µM.

Regarding `Cc1cc(Nc2nccc(C(F)(F)F)n2)cc(-c2cnn(CC3OC(=O)NC3C)c2)c1` (single isomer, unassigned) [Example 23.2, 4-methyl-5-{[4-(3-methyl-5-{[4-(trifluoromethyl)pyrimidin-2-yl]amino}phenyl)-1H-pyrazol-1-yl]methyl}-1,3-oxazolidin-2-one], the IC50 under setting [1] was at most 0.1 µM.

On to `Cc1cc(Nc2nccc(C(F)(F)F)n2)cc(-c2cnn(CC3OC(=O)NC3C(C)C)c2)c1` (single isomer, unassigned) [Example 23.3, 4-(1-methylethyl)-5-{[4-(3-methyl-5-{[4-(trifluoromethyl)pyrimidin-2-yl]amino}phenyl)-1H-pyrazol-1-yl]methyl}-1,3-oxazolidin-2-one], for which the IC50 under setting [1] is at most 0.1 µM.

Take `Cc1cc(Nc2nccc(C(F)(F)F)n2)cc(-c2cnn(CC3OC(=O)NC3C(C)C)c2)c1` (single isomer, unassigned) [Example 23.4, 4-(1-methylethyl)-5-{[4-(3-methyl-5-{[4-(trifluoromethyl)pyrimidin-2-yl]amino}phenyl)-1H-pyrazol-1-yl]methyl}-1,3-oxazolidin-2-one]: the IC50 under setting [1] was at most 0.1 µM.
